In patent US20090270350A1, “Pyridinone Pyrazole Urea and Pyrimidinone Pyrazole Urea Derivatives” (PFIZER INC., priority 2006, published 2009):
pIC50: −log10 of the molar value.

Key:
p38α = p38α (Homo sapiens, UniProt Q16539); test: p38α/MK2 cascade assay; type: biochemical; settings: Table 1; inhibitors preincubated with p38α for 40 minutes; phosphorylation of Hsp27 peptide by MK-2, Caliper LabChip 3000; read-out: p38a/MK2 Cascade 40 min Pre-Incuabtion (% Inhibition): IC50
Procedure, shortened: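 In a cascade format, p38α was preincubated 40 min with inhibitor (1000–0.05 nM) before adding 1 nM nonactive MK2 (54-400), 5 μM MgATP and 0.5 μM FITC-Hsp27 peptide. Reaction ran 60 min in HEPES pH 7.5 with MgCl2, DTT, 2% DMSO, then EDTA-quenched. Peptide phosphorylation was measured by Caliper mobility shift to give IC50.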

Sequence of p38α (Q16539 whole entry): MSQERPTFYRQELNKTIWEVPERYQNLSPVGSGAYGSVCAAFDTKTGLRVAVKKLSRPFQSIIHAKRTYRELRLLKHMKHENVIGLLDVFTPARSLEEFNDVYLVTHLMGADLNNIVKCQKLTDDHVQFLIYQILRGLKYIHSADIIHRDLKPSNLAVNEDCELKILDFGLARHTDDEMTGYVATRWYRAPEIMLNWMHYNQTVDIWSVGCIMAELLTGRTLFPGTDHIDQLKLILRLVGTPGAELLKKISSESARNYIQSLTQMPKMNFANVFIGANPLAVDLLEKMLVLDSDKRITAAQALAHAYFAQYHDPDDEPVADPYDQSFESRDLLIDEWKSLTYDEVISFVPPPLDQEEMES

## Cc1ccc(C(=O)NCCN(C)C)cc1-n1c(C)cc(OCc2ccc(F)cc2CNC(=O)Nc2cc(C(C)(C)C)nn2-c2cccc(OCCO)c2)c(Cl)c1=O [Example 178]
other
  melting point: 158 to 160 °C
p38α
  pIC50: 8.85

## Cc1ccc(C(=O)NCC(N)=O)cc1-n1c(C)cc(OCc2ccccc2CNC(=O)Nc2cc(C(C)(C)C)nn2-c2ccc(O)c(Cl)c2)c(Cl)c1=O [Example 160, 3-[4-(2-{3-[5-tert-butyl-2-(3-chloro-4-hydroxy-phenyl)-2H-pyrazol-3-yl]-ureidomethyl}-benzyloxy)-3-chloro-6-methyl-2-oxo-2H-pyridin-1-yl]-N-carbamoylmethyl-4-methyl-benzamide]
other
  melting point: 228 to 230 °C

## Cc1ccc(C(=O)NCCN(C)C)cc1-n1c(C)cc(OCc2ccccc2CNC(=O)Nc2cc(C(C)(C)C)nn2-c2ccc(O)c(Cl)c2)c(Cl)c1=O [Example 158, 3-[4-(2-{3-[5-tert-butyl-2-(3-chloro-4-hydroxy-phenyl)-2H-pyrazol-3-yl]-ureidomethyl}-benzyloxy)-3-chloro-6-methyl-2-oxo-2H-pyridin-1-yl]-N-(2-dimethylamino-ethyl)-4-methyl-benzamide]
other
  melting point: 181 to 182 °C

## COC(=O)c1ccc(C)c(-n2c(C)cc(OCc3ccccc3CNC(=O)Nc3cc(C(C)(C)C)nn3-c3ccc(Cl)c(O)c3)c(Cl)c2=O)c1 [Example 138, 3-[4-(2-{3-[5-tert-butyl-2-(4-chloro-3-hydroxy-phenyl)-2H-pyrazol-3-yl]-ureidomethyl}-benzyloxy)-3-chloro-6-methyl-2-oxo-2H-pyridin-1-yl]-4-methyl-benzoic acid methyl ester]
other
  melting point: 193 to 195 °C

## Cc1ccc(C(=O)NCCN(C)C)cc1-n1c(C)cc(OCc2ccccc2CNC(=O)Nc2cc(C(C)(C)C)nn2-c2ccc(Cl)c(O)c2)c(Cl)c1=O [Example 165, 3-[4-(2-{3-[5-tert-butyl-2-(4-chloro-3-hydroxy-phenyl)-2H-pyrazol-3-yl]-ureidomethyl}-benzyloxy)-3-chloro-6-methyl-2-oxo-2H-pyridin-1-yl]-N-(2-dimethylamino-ethyl)-4-methyl-benzamide]
other
  melting point: 185 to 186 °C

## COCCNC(=O)c1ccc(C)c(-n2c(C)cc(OCc3ccc(F)cc3CNC(=O)Nc3cc(C(C)(C)C)nn3-c3ccc(Cl)c(O)c3)c(Cl)c2=O)c1 [Example 164, 3-[4-(2-{3-[5-tert-butyl-2-(4-chloro-3-hydroxy-phenyl)-2H-pyrazol-3-yl]-ureidomethyl}-4-fluoro-benzyloxy)-3-chloro-6-methyl-2-oxo-2H-pyridin-1-yl]-N-(2-methoxy-ethyl)-4-methyl-benzamide]
other
  melting point: 186 to 187 °C

## Cc1ccc(C(=O)NCC(O)CO)cc1-n1c(C)cc(OCc2ccccc2CNC(=O)Nc2cc(C(C)(C)C)nn2-c2cccc(OCCO)c2)c(Cl)c1=O (centres unmarked) [Example 134, 3-{4-[2-(3-{5-tert-Butyl-2-[3-(2-hydroxy-ethoxy)-phenyl]-2H-pyrazol-3-yl}-ureidomethyl)-benzyloxy]-3-chloro-6-methyl-2-oxo-2H-pyridin-1-yl}-N-(2,3-dihydroxy-propyl)-4-methyl-benzamide]
other
  melting point: 158 to 160 °C

## CNC(=O)CNC(=O)c1ccc(C)c(-n2c(C)cc(OCc3ccccc3CNC(=O)Nc3cc(C(C)(C)C)nn3-c3ccc(O)c(Cl)c3)c(Cl)c2=O)c1 [Example 156, 3-[4-(2-{3-[5-tert-butyl-2-(3-chloro-4-hydroxy-phenyl)-2H-pyrazol-3-yl]-ureidomethyl}-benzyloxy)-3-chloro-6-methyl-2-oxo-2H-pyridin-1-yl]-4-methyl-N-methylcarbamoylmethyl-benzamide]
other
  melting point: 209 to 211 °C
p38α
  pIC50: 8.46

## CNC(=O)CNC(=O)c1ccc(C)c(-n2c(C)cc(OCc3ccccc3CNC(=O)Nc3cc(C(C)(C)C)nn3-c3ccc(Cl)c(O)c3)c(Cl)c2=O)c1 [Example 167, 3-[4-(2-{3-[5-tert-Butyl-2-(4-chloro-3-hydroxy-phenyl)-2H-pyrazol-3-yl]-ureidomethyl}-benzyloxy)-3-chloro-6-methyl-2-oxo-2H-pyridin-1-yl]-4-methyl-N-methylcarbamoylmethyl-benzamide]
other
  melting point: 179 to 181 °C
p38α
  pIC50: 8.77

## COCCNC(=O)c1ccc(C)c(-n2c(C)cc(OCc3ccccc3CNC(=O)Nc3cc(C(C)(C)C)nn3-c3ccc(O)c(Cl)c3)c(Cl)c2=O)c1 [Example 155, 3-[4-(2-{3-[5-tert-butyl-2-(3-chloro-4-hydroxy-phenyl)-2H-pyrazol-3-yl]-ureidomethyl}-benzyloxy)-3-chloro-6-methyl-2-oxo-2H-pyridin-1-yl]-N-(2-methoxy-ethyl)-4-methyl-benzamide]
other
  melting point: 179 to 180 °C

## Cc1ccc(C(=O)NCC(O)CO)cc1-n1c(C)cc(OCc2ccccc2CNC(=O)Nc2cc(C(C)(C)C)nn2-c2ccc(O)c(Cl)c2)c(Cl)c1=O (centres unmarked) [Example 157, 3-[4-(2-{3-[5-tert-butyl-2-(3-chloro-4-hydroxy-phenyl)-2H-pyrazol-3-yl]-ureidomethyl}-benzyloxy)-3-chloro-6-methyl-2-oxo-2H-pyridin-1-yl]-N-(2,3-dihydroxy-propyl)-4-methyl-benzamide]
other
  melting point: 173 to 175 °C

## CNC(=O)c1ccc(C)c(-n2c(C)cc(OCc3ccccc3CNC(=O)Nc3cc(C(C)(C)C)nn3-c3cccc(OCCO)c3)c(Cl)c2=O)c1 [Example 133, 3-{4-[2-(3-{5-tert-butyl-2-[3-(2-hydroxy-ethoxy)-phenyl]-2H-pyrazol-3-yl}-ureidomethyl)-benzyloxy]-3-chloro-6-methyl-2-oxo-2H-pyridin-1-yl}-4,N-dimethyl-benzamide]
other
  melting point: 168 to 170 °C

## COC(=O)c1ccc(C)c(-n2c(C)cc(OCc3ccccc3CNC(=O)Nc3cc(C(C)(C)C)nn3-c3cccc(OCCO)c3)c(Cl)c2=O)c1 [Example 130, 3-{4-[2-(3-{5-tert-Butyl-2-[3-(2-hydroxy-ethoxy)-phenyl]-2H-pyrazol-3-yl}-ureidomethyl)-benzyloxy]-3-chloro-6-methyl-2-oxo-2H-pyridin-1-yl}-4-methyl-benzoic acid methyl ester]
other
  melting point: 147 to 148 °C

## Cc1ccc(C(=O)NCCO)cc1-n1c(C)cc(OCc2ccccc2CNC(=O)Nc2cc(C(C)(C)C)nn2-c2ccc(Cl)c(O)c2)c(Cl)c1=O [Example 162, 3-[4-(2-{3-[5-tert-butyl-2-(4-chloro-3-hydroxy-phenyl)-2H-pyrazol-3-yl]-ureidomethyl}-benzyloxy)-3-chloro-6-methyl-2-oxo-2H-pyridin-1-yl]-N-(2-hydroxy-ethyl)-4-methyl-benzamide]
other
  melting point: 196 to 197 °C

## Cc1ccc(C(=O)NCCO)cc1-n1c(C)cc(OCc2ccccc2CNC(=O)Nc2cc(C(C)(C)C)nn2-c2ccc(O)c(Cl)c2)c(Cl)c1=O [Example 154, 3-[4-(2-{3-[5-tert-butyl-2-(3-chloro-4-hydroxy-phenyl)-2H-pyrazol-3-yl]-ureidomethyl}-benzyloxy)-3-chloro-6-methyl-2-oxo-2H-pyridin-1-yl]-N-(2-hydroxy-ethyl)-4-methyl-benzamide]
other
  melting point: 195 to 196 °C

## CNC(=O)c1ccc(C)c(-n2c(C)cc(OCc3ccccc3CNC(=O)Nc3cc(C(C)(C)C)nn3-c3ccc(Cl)c(O)c3)c(Cl)c2=O)c1 [Example 161, 3-[4-(2-{3-[5-tert-butyl-2-(4-chloro-3-hydroxy-phenyl)-2H-pyrazol-3-yl]-ureidomethyl}-benzyloxy)-3-chloro-6-methyl-2-oxo-2H-pyridin-1-yl]-4,N-dimethyl-benzamide]
other
  melting point: 201 to 203 °C

## Cc1ccc(C(=O)NC(C)C(N)=O)cc1-n1c(C)cc(OCc2ccccc2CNC(=O)Nc2cc(C(C)(C)C)nn2-c2ccc(O)c(Cl)c2)c(Cl)c1=O (stereo in doubt) [Example 159, (R)-3-[4-(2-{3-[5-tert-butyl-2-(3-chloro-4-hydroxy-phenyl)-2H-pyrazol-3-yl]-ureidomethyl}-benzyloxy)-3-chloro-6-methyl-2-oxo-2H-pyridin-1-yl]-N-(1-carbamoyl-ethyl)-4-methyl-benzamide]
other
  melting point: 192 to 193 °C
p38α
  pIC50: 8.60

## CNC(=O)c1ccc(C)c(-n2c(C)cc(OCc3ccccc3CNC(=O)Nc3cc(C(C)(C)C)nn3-c3ccc(O)c(Cl)c3)c(Cl)c2=O)c1 [Example 153, 3-[4-(2-{3-[5-tert-butyl-2-(3-chloro-4-hydroxy-phenyl)-2H-pyrazol-3-yl]-ureidomethyl}-benzyloxy)-3-chloro-6-methyl-2-oxo-2H-pyridin-1-yl]-4,N-dimethyl-benzamide]
other
  melting point: 201 to 203 °C

## COC(=O)c1ccc(C)c(-n2c(C)cc(OCc3ccc(F)cc3CNC(=O)Nc3cc(C(C)(C)C)nn3-c3ccc(O)cc3)c(Cl)c2=O)c1 [Example 136, 3-[4-(2-{3-[5-tert-butyl-2-(4-hydroxy-phenyl)-2H-pyrazol-3-yl]-ureidomethyl}-4-fluoro-benzyloxy)-3-chloro-6-methyl-2-oxo-2H-pyridin-1-yl]-4-methyl-benzoic acid methyl ester]
other
  melting point: 188 to 190 °C
